Test results from US6492137B1, “Response element compositions and assays employing same” (The Salk Institute for Biological Studies, priority 1989, dated 2002).

Experiments:
TRβ [1] = molecular target: T1, TRβ (Homo sapiens, UniProt P10828); assay: Gel retardation DNA-binding assay with TRβ-expressing COS cell extracts; design: expressed in transfected cells; host or cells: COS cells (whole-cell extract); conditions: for competition for TRβ binding to 32P-labeled MHC-N: 50-fold excess of unlabeled oligonucleotide, COS cell extracts; for TRβ binding to labeled oligonucleotide probe: gel retardation, TRβ COS cell extract
T1 sequence (P10828 1-461): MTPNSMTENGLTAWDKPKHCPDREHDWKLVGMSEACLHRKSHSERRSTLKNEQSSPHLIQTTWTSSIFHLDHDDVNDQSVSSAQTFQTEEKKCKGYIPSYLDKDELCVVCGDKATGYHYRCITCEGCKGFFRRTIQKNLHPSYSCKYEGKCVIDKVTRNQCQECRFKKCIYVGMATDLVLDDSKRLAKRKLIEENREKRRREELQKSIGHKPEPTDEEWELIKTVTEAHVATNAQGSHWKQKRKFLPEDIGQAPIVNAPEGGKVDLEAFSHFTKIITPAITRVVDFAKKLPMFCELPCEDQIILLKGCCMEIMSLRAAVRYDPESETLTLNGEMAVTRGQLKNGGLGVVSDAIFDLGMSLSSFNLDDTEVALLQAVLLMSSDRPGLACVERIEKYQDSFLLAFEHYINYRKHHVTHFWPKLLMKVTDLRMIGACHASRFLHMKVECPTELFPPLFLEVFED
Method: For DNA binding assays, COS cells were cultured in DMEM with 10% calf bovine serum and transfected by the calcium phosphate method with 20 μg of the pCMX receptor expression plasmid for 6 hours followed by a glycerol shock. After incubating the transfected COS cells for another 48 hours, the cells were harvested to prepare extracts for the DNA binding assay, carried out as described by Damm et al., Nature 339: 593-597 (1989). The extracts were made in 20 mM HEPES (pH 7.4), 0.4 M KCl, 2 mM DTT and 20% glycerol. A similar method was employed to prepare a whole cell extract from F9 stem cells. For the binding, 5 μg (COS) or 10 μg (F9) of proteins was incubated on ice for 20 minutes, first in 20 mM HEPES, 80 mM KCl, 1 mM DTT, 0.1% NP40, 2.5 μg of poly dI/dC, and 10% glycerol (cold competitor oligonucleotides, when included, were added during this pre-incubation period). Then 40 fmole of ^32P-labeled oligonucleotide probe (1-2×10^5 cpm, prepared by filling-in reaction using Klenow polymerase in the presence of α-^32P-dCTP) was added to the reaction mixture, followed by incubation at room temperature for 30 minutes. The receptor-DNA complexes were resolved by electrophoresis through 5% polyacrylamide gel containing 5% glycerol at 6 V/cm at room temperature.
Oligonucleotides listed in FIG. 3 were used as a probe to test specific DNA-binding of the RARα and TRβ in a gel retardation assay.
Using the mobility shift assay, the DNA-binding capacity of extracts from COS cells expressing TRβ and RARα to these sequences was also tested.

TRβ [2] = molecular target: T1, TRβ; assay: ΔSV-CAT reporter cotransfection assay in CV-1 cells with TRβ expression plasmid, ±T3; format: cell-based; design: expressed in transfected cells; host or cells: CV-1 (monkey kidney); conditions: TRβ expression vector
Description: Receptor expression plasmids used in the following cotransfection assays have been described previously (pRShTRβ [see Thompson, et al., Proc. Natl. Acad. Sci. U.S.A. 86: 3494-3498 (1989)]; pRShRARα [see Giguere, et al., Nature 330: 624-629 (1987)]; pRShRARβ and pRshRARγ [see Ishikawa, et al., Mol. Endocrinol, 4: 837-844 (1990)]; and pRShVDR, [Schule, et al., Cell 61: 497-504 (1990)]. A basal reporter plasmid ΔSV-CAT was constructed by replacing the TK promoter in TK-CAT [Damm, et al., Nature 339: 593-597 (1989)] with the SphI-HindIII fragment of the SV40 early promoter. All of the recombinant CAT reporter plasmids used herein harbor a single copy of the indicated oligonucleotides at the unique HindIII site upstream of the SV40 promoter. […] To improve production of receptor proteins in COS cells, a new eukaryotic expression vector pCMX was prepared by modifying the plasmid CDM8 [Seed, B., Nature 329: 840-842 (1987)]. The CDM8 was cut with MluI and StuI in order to release the DNA fragment encoding the CMV/T7 promoter, SV40 small t intron/poly A signal, polyoma virus enhancer/origin, and SV40 enhancer/origin. The resulting fragment was ligated to a larger fragment of PvuII-digested PUC19. An internal deletion was introduced between unique BamHI and BclI sites present in the DCM8 portion. The stuffer sequence flanked by XbaI sites was replaced with a synthetic polylinker coding for 5′-KpnI/Asp718-EcoRV-BamHI -MscI-NheI-3′, followed by a stretch of 5′-[…]-3′ (SEQ ID NO:48) which can function as a universal termination signal for protein translation. The coding sequence of the luciferase [de Wet, et al., Mol. Cell. Biol. 7: 725-737 (1987)] and human TRβ, RARα, and VDR was placed in the polylinker region of the pCMX, generating pCMX-LUC, Pcmx-Htrβ, pCMX-hRARα, and pCMX-hVDR, respectively. The translation start site of the RARα was modified to […] by attaching the synthetic linker encoding a consensus translation start signal [Hollenberg, et al., Cell 55: 899-906 (1988)].
(§1) For cotransfection assays, a monkey kidney cell line CV-1 was kept in Dulbecco's modified Eagle's medium (DMEM) supplemented with 10% charcoal-resin double split calf bovine serum. Transfections were performed via calcium-phosphate precipitation method as described by Umesono, et al. in Cell 57: 1139-1146 (1989), with 0.5 μg of a pRS receptor expression plasmid, 1.0 μg of a reporter CAT plasmid, 5 μg of pRAS-βGAL [Umesono, et al., Cell 57: 1139-1146 (1989)] as an internal control, and 8.5 μg of carrier plasmid pUC19. The cells were transfected for 8 hours; after washing the DNA precipitates, the cells were then incubated for an additional 36 hours with or without the ligand (T3, 100 nM; RA, 1 μM; 1,25-(OH)2 vitamin D3, 100 nM). Cell extracts were prepared for βGAL and CAT assays, as described by Umesono, et al., supra. Transfection of F9 teratocarcinoma cells was carried out employing a similar method except the cells were incubated for 12 hours in the presence of the DNA precipitates, and the RA was added at 1 μM for another 24 hours before harvesting the cells. 2, 5, and 4 μg of the reporter, pRAS-βGAL, and pUC19 were used, respectively.
Target hormone response elements described in FIG. 3 were synthesized as double-stranded oligonucleotides with an overhanging tetranucleotide (5′-agct-3′) at both ends. A single copy of these oligonucleotides was cloned at the unique HindIII site present in the basal promoter CAT construct ΔSV-CAT. Capitalized portions in the nucleotide sequences correspond to those found in the natural promoters except TREp and rGH21, which are synthetic. Bold letters indicate the “AGGTCA” motif and “X” denotes a nucleotide substitution from this motif.

[3] = system: F9 teratocarcinoma stem cells; assay: CAT reporter transfection into RA responsive F9 teratocarcinoma stem cells; format: cell-based, mouse; conditions: RA 1 μM, 24 hours; no transfected receptor
Method: as §1
Similarly, when the same set of reporters as in FIG. 4 were transfected into F9 cells, only MHC-R (5-nucleotide spacer) and TREp are potent RAREs. In contrast, its RARE antecedents (MHC-N, MHC+1, MHC-T) are inert.

Substance: M3: MHC-N with nucleotide substitutions in the proposed direct repeat motif (SEQ ID NO:17) (AGCTGGAGGTGACAGGAAAACAGCAAGCT; DNA, backbone not given here; double-stranded DNA response element with agct overhangs, cloned into reporter)
- competition for TRβ binding to 32P-labeled MHC-N (TRβ [1]): did not
- T3 responsiveness (in words) (TRβ [2]): completely silent to T3

Substance: MHC-L: wild-type MHC sequence encoding a TRE in the MHC gene promoter (SEQ ID NO:11) (AGCTCCTTGGCTCTGGAGGTGACAGGAGGACAGCAGCT; DNA, backbone not given here; double-stranded response element with agct overhangs, cloned into reporter plasmid)
- T3 responsiveness (in words) (TRβ [2]): responsive to T3

Substance: MHC-S: restricted region of MHC-L corresponding to the predicted palindrome (SEQ ID NO:12) (AGCTCTCTGGAGGTGACAGGAAGCT; listed as DNA, further chemistry not given here)
- T3 responsiveness (in words) (TRβ [2]): failed to confer T3 responsiveness

Substance: M2: MHC-N mutant with nucleotide substitutions in the presumed palindrome (SEQ ID NO:16) (AGCTGGAGGTGACGAAAGGACAGCAAGCT; DNA, backbone not given here; double-stranded DNA response element with agct overhangs, cloned into reporter)
- competition for TRβ binding to 32P-labeled MHC-N (TRβ [1]): competed
- T3 responsiveness (in words) (TRβ [2]): retains a T3 response though impaired

Substance: MLV-LTR: thyroid response element found in the murine Maloney Leukemia Virus LTR (SEQ ID NO:19) (DNA AGCTCAGGGTCATTTCAGGTCCTTGAAGCT; listed as DNA, chemistry not given here) [reference compound]
- TRβ binding to labeled oligonucleotide probe (TRβ [1]): high affinity
- T3 responsiveness (in words) (TRβ [2]): confers T3 inducibility

Substance: M1: MHC-N with nucleotide substitutions in the proposed direct repeat motif (SEQ ID NO:15) (AGCTGGAAATGACAGGAGGACAGCAAGCT; DNA, backbone not given here; double-stranded DNA response element with agct overhangs, cloned into reporter)
- competition for TRβ binding to 32P-labeled MHC-N (TRβ [1]): did not
- T3 responsiveness (in words) (TRβ [2]): completely silent to T3

Substance: MHC+1: MHC-N with half-site spacing increased by one nucleotide (SEQ ID NO:22) (AGCTGGAGGTGAACAGGAGGACAGCAAGCT; DNA, backbone not given here; double-stranded response element with agct overhangs, cloned into reporter plasmid)
- competition for TRβ binding (mobility shift assay) (TRβ [1]; unlabeled competitor oligonucleotide, COS cells expressing TRβ): poor competitors
- function as RARE in F9 cells [3]: inert

Substance: rGH21: rat growth hormone gene sequence proposed as a candidate TRE (SEQ ID NO:20) (AGCTAGGTAAGATCAGGTAAGTAGCT; listed as DNA, chemistry not fully specified) [reference compound]
- TRβ binding to labeled oligonucleotide probe (TRβ [1]): binds very poorly
- T3 responsiveness (in words) (TRβ [2]): fails to confer T3-dependent transactivation

Substance: MHC-D: segment of the MHC sequence including an adjacent sequence; deletion from MHC-L (SEQ ID NO:13) (AGCTTGAGGTGACAGGAGGACAGCAGCT; DNA, backbone not given here; double-stranded DNA response element with agct overhangs, cloned into reporter)
- T3 responsiveness (in words) (TRβ [2]): recovery of the full response
